These results are taken from patent US12414267B2, “Fluorinated aromatics and methods of using same” (3M INNOVATIVE PROPERTIES COMPANY, priority 2019, dated 2025).

SMILES strings stand for the structures.

The nature of this series: Log Kow (octanol/water partition coefficient) by HPLC, OECD Test Method 117. Type of series: physicochemical. To be noted: OECD 117. As to the method: Values of Log Kow (octanol/water partition coefficients) were determined by HPLC using the method described in Organization for Economic Cooperation and Development (OECD) Test Method 117, “Partition Coefficient (n-octanol/water), HPLC Method.”
On to `FC(F)(F)C(=C(Oc1cccc(C(F)(F)F)c1)C(F)(F)C(F)(F)F)C(F)(F)F` [Example 7, 1-((1,1,1,4,4,5,5,5-Octafluoro-2-(trifluoromethyl)pent-2-en-3-yl)oxy)-3-(trifluoromethyl)benzene], for which the “Log Kow” value is 6.1.

Turning to `Fc1c(F)c(F)c(OC(=C(C(F)(F)F)C(F)(F)F)C(F)(F)C(F)(F)F)c(F)c1F` [Example 1, 1,2,3,4,5-Pentafluoro-6-[3,3,3-trifluoro-1-(1,1,2,2,2-pentafluoroethyl)-2-(trifluoromethyl)prop-1-enoxy]benzene], the “Log Kow” value came out at 6.1.

As for `F/C(=C(/C(F)(F)F)C(F)(Oc1ccccc1)C(F)(F)C(F)(F)F)C(F)(C(F)(F)F)C(F)(F)F` (stereo not drawn) [Example 4, (E)-((1,1,1,2,2,3,5,6,7,7,7-Undecafluoro-4,6-bis(trifluoromethyl)hept-4-en-3-yl)oxy)benzene+isomers], the “Log Kow” value is given as over 6.4.

On to `F/C(Oc1c(F)c(F)c(F)c(F)c1F)=C(/F)C(F)(F)F` [Example 2, (E)-1,2,3,4,5-Pentafluoro-6-((perfluoroprop-1-en-1-yl)oxy)benzene], for which the “Log Kow” value stood at 4.7.

Regarding `F/C(=C(/C(F)(F)F)C(F)(Oc1c(F)c(F)c(F)c(F)c1F)C(F)(F)C(F)(F)F)C(F)(C(F)(F)F)C(F)(F)F` (stereo not drawn) [Example 3, (E)-1,2,3,4,5-Pentafluoro-6-((1,1,1,2,2,3,5,6,7,7,7-undecafluoro-4,6-bis(trifluoromethyl)hept-4-en-3-yl)oxy)benzene], the “Log Kow” value is given as over 6.4.

`FC(F)(F)C(=C(Oc1ccccc1)C(F)(F)C(F)(F)F)C(F)(F)F` [Example 5, ((1,1,1,4,4,5,5,5-Octafluoro-2-(trifluoromethyl)pent-2-en-3-yl)oxy)benzene]: the “Log Kow” value was found to be 5.5.
